Consider six molecules from US20250207167A1, “ASPERGILLUS SP. L14-OE::LAEA2 AND APPLICATION THEREOF IN PRODUCING CYCLIC TRIPEPTIDES” (Zhejiang University of Technology, priority 2023, published 2025).

≈ marks a conversion by molar mass, not a printed value. Where only a bound is given, the exact number is not on record here.

In general, inhibition refers to the relative decrease from the control value, in per cent. Broadly, the MIC is the least concentration at which growth counts as inhibited. Lower therefore signals a more susceptible organism.

The subject of series [1] is Candida albicans ATCC 10231. The experiment in a line: Antifungal activity against Candida albicans (serial dilution MIC). In kind it is cell-based. The note with it: 48 hours at 30° C., absorbance at 600 nm; for MIC: Candida albicans, ATCC10231. The procedure:
Candida albicans ATCC 10231, as an indicator strain, is activated for 3 days at 30° C. on the Sabouraud solid medium, and then amplified for 2 days at 30° C. and 180 rpm in the Sabouraud liquid medium to obtain an indicator liquid for antifungal activity testing.
An outermost ring of a 96-well plate is filled with 100 μL of the Sabouraud liquid medium for blank culture to prevent contamination; a first well of the 96-well plate is added with samples and the indicator liquid, with a total solution volume of 200 μL and a sample concentration of 128 μg/mL in the first well. A “serial dilution method” is used to achieve sample concentrations of 64, 32, 16, 8, 4, 2, 1, 0.5, and 0.25 μg/mL respectively in subsequent wells. Each sample has three parallel controls, and is incubated for 48 hours at 30° C. Then, the absorbance of the indicator liquid is measured at 600 nm using a microplate reader, and minimum inhibitory concentrations (MIC) of the compounds are recorded. The samples are the compound I, the compound II, and the compound III, with Amphotericin B as the control.

Series [2] concerns human brain glioma cell line (HEB). The experiment in a line: SRB tumor cell growth inhibition, HEB. In kind it is cell-based. The following applies: 72 h, 3 days, read-out: human brain glioma cell line HEB growth inhibition rate %. The source says: (§1) A Sulforhodamine B (SRB) colorimetric method is used to perform in vitro growth inhibition experiments on tumor cells with the isolated monomeric compounds A human brain glioma cell line (HEB) and a human hepatocellular carcinoma cell line (Hep-G2) both from Cell Resource Center, Institute of Basic Medical Sciences ([…]), China. Tumor cells in a logarithmic growth phase are selected and digested with trypsin followed by adjusting a cell concentration to 2×10^4 cells/mL with a Roswell Park memorial institute 1640 (RPMI 1640) medium containing 10% fetal bovine serum to obtain a tumor cell suspension. Sample solutions: the compound I, the compound II, and the compound III prepared in the embodiment 3 are separately added with DMSO to prepare 200 μM of the sample solutions. Control antibiotic solution: The antibiotic 5-fluorouracil (5-FU) is diluted with DMSO to prepare 100 μM of the control antibiotic solution. The tumor cell suspensions in Table 11 are inoculated into a 96-well culture plate at 190 μL per well, and then incubated at 37° C. with 5% carbon dioxide (CO2) for 24 hours. The culture wells are divided into drug wells, control wells, and blank wells. […] The blank wells are added with 10 μL of the RPMI 1640 medium containing 10% fetal bovine serum and an equal volume of DMSO as a solvent. The 96-well culture plate is then at 37° C. with 5% CO2 for incubation for 3 days followed by removing culture medium. Then, each well of the 96-well culture plate is slightly added with 100 μL of the 50% TCA solution pre-cooled at 4° C., and then allowed to stand for 5 min, followed by moving the 96-well culture plate to 4° C. for 1 hour to fix cells to obtain a cell-fixed plate. After discarding the fixing solution from the cell-fixed plate, the wells of the cell-fixed plate are washed five times with distilled water to remove TCA and then air-dried for 1 hour to obtain a first dried plate. Each well of the first dried plate is added with 80 μL of the 0.4% SRB solution for staining at room temperature for 30 min to obtain a stained plate. After discarding the staining solution of the stained plate, the stained plate is washed five times by 1% acetic acid aqueous solution to fully remove unbound SRB and then air-dried for 1 hour to obtain a second dried plate. Each well of the second dried plate is added with 150 μL of the 10 mM Tris-based solution for dissolving, and then oscillated for 5 min on a mini shaker (Mini shaker Kylin-Bell Lab instruments) to obtain an oscillated plate. Samples from each well of the oscillated plate are taken and an OD value at 570 nm is measured for each sample by using an M5 microplate reader.

The test system of series [3] is human hepatocellular carcinoma cell line (Hep-G2). The experiment in a line: SRB tumor cell growth inhibition, Hep-G2. In kind it is cell-based. The following applies: HepG2, 72 h, 3 days, read-out: human hepatocellular carcinoma cell line Hep-G2 growth inhibition rate %.
Description: as §1

Series [4] in a line: DPPH antioxidant activity test. The following applies: for Antioxidant activity IC50 value: DPPH scavenging, 37° C. half an hour. It counts as biochemical. The procedure: 1 mg of solid DPPH is dissolved in 24 mL of methanol and then ultrasonicated for 5 min, followed by shaking thoroughly to obtain DPPH solution to ensure uniformity throughout the DPPH solution. 1 mL of the DPPH solution is taken and diluted by adding 0.5 mL of 95% methanol to obtain a diluted solution with an absorbance in a range of 0.6-1.0. The samples are added with methanol to prepare 1 mg/mL of sample solutions. The sample solutions are separately added to the DPPH solution while mixing continuously with a small start amount to obtain mixed solutions and an addition amount of the sample solutions gradually increases. Solution decolorization is observed when adding the sample solutions. When color of the mixed solutions has essentially faded, a maximum amount of the added sample solution is recorded. Based on the maximum amount, five additional amounts are set in an arithmetic sequence moving backwards. A final measurement is performed according to the arithmetic sequence, and for each amount, three parallel data points are measured. An absorbance value (A value) at each amount may be measured after placing the mixed solutions in a 37° C. oven for half an hour. An experimental antioxidant concentration serves as an x-axis and a scavenging rate serves as a y-axis, then a linear regression equation is calculated. 50% scavenging rate is substituted into the linear regression equation to obtain a corresponding x-axis value, which is a half-maximal inhibitory concentration (IC50) value. The samples are the compound I, the compound II, and the compound III, with vitamin C (Vc) as the control. The scavenging rate=((A0−A)/A0)×100; where A0 represents a value before adding the sample solutions, and A represents a value after adding the sample solutions.
A general note: DPPH is a stable violet radical that fades when it is reduced.

For series [5] the following is noted: according to literature searches; cited from earlier work.
For series [6], the system named is silkworms and American moths. The note with it: against silkworms and American moths; literature; cited from earlier work.
The next series concerns Candida albicans. The following applies: reported in literature; cited from earlier work.

Turning to `C[C@@H]1[C@H](O)[C@@H](C)/C=C/C=C/C=C/C=C/C=C/C=C/C=C/[C@H](O[C@@H]2O[C@H](C)[C@@H](O)[C@H](N)[C@@H]2O)C[C@@H]2O[C@](O)(C[C@@H](O)C[C@@H](O)[C@H](O)CC[C@@H](O)C[C@@H](O)CC(=O)O[C@H]1C)C[C@H](O)[C@H]2C(=O)O` [Amphotericin B, reference compound], in series [1], the “MIC value against the Candida albicans ATCC 10231” value was determined as 2 µg/mL (≈ 2.16 µM).

For the molecule `O=c1[nH]cc(F)c(=O)[nH]1` [Compound 5-FU, 5-fluorouracil, reference compound], the inhibition at 5 µM in series [2] (positive control, 5 μM) worked out at 69.5%; in series [3] (positive control, 5 μM) it was 71.3%.

With `C/C=C/C=C/C=C/C(=O)N[C@H]1CCCNC(=O)[C@H](C)N(C)C(=O)[C@H](C(C)C)N(C)C1=O` [Compound I, aspochracin], the MIC in series [1] is > 128 µg/mL. In addition, in series [4], the “antioxidant activity (in words)” value is reported as “moderate antioxidant activity” and the “Antioxidant activity IC50 value” was 420 µg/mL. Also, in series [2], the inhibition at 10 µM was -19.9%. The inhibition at 10 µM in series [3] was -17.9%. In series [5], the mammalian toxicity entry is “extremely low mammalian toxicity”. In addition, in series [6], the insecticidal activity entry was “recognized insecticidal activity”.

`C/C=C/C=C/C=C/C(=O)N[C@H]1CCCNC(=O)[C@H](C)NC(=O)[C@H](C(C)C)N(C)C1=O` [Compound II, JBIR-15] had an MIC in series [1] of 32 µg/mL (≈ 76.5 µM). Moreover, in series [4], the “antioxidant activity (in words)” value was “moderate antioxidant activity” and the “Antioxidant activity IC50 value” was determined as 400 µg/mL. In addition, in series [2], the inhibition at 10 µM is -6.04%. In series [3], the inhibition at 10 µM was 11.8%. Moreover, the “anti-Candida albicans activity, minimum inhibitory concentration (MIC)” value with Candida albicans was 30 µg/mL.

As to `C/C=C/C=C/C=C/C(=O)N[C@H]1CCCCNC(=O)[C@H](C)N(C)C(=O)[C@H](C(C)C)N(C)C1=O` [Compound III, sclerotiotide C], the minimum inhibitory concentration (MIC) in series [1] is > 128 µg/mL. Moreover, in series [4], the “antioxidant activity (in words)” value is on record as “moderate antioxidant activity” and the “Antioxidant activity IC50 value” came to 430 µg/mL. Further, the inhibition at 10 µM in series [2] is -13.7%. Moreover, the inhibition at 10 µM in series [3] turned out to be 21.1%.

On to `O=C1O[C@H]([C@@H](O)CO)C(O)=C1O` [Vc, vitamin C, reference compound], for which the “Antioxidant activity IC50 value” in series [4] is 9 µg/mL.
